The record followed here is patent US11312705B2, “Heteroaryl[4,3-C]pyrimidine-5-amine derivative, preparation method therefor, and medical uses thereof” (Jiangsu Hengrui Medicine Co., Ltd., priority 2017, dated 2022).

The target in test [1] is adenosine A2a receptor (A2aR) (Homo sapiens (Human), UniProt P29274). As to the kind of experiment: Inhibition of adenosine A2a receptor cAMP signaling pathway (HTRF cAMP, CHO-K1/A2aR cells). Format: cell-based. The gist of the method: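 CHO-K1 cells expressing human A2aR, preincubated 30 min at room temperature with compound (10000–0.001024 nM final) in HEPES/BSA buffer with rolipram and adenosine deaminase, then stimulated 30 min with […] (20 nM final). Intracellular cAMP read by HTRF after 1 h lysis/detection.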
Chain of adenosine A2a receptor (A2aR) (P29274 whole entry): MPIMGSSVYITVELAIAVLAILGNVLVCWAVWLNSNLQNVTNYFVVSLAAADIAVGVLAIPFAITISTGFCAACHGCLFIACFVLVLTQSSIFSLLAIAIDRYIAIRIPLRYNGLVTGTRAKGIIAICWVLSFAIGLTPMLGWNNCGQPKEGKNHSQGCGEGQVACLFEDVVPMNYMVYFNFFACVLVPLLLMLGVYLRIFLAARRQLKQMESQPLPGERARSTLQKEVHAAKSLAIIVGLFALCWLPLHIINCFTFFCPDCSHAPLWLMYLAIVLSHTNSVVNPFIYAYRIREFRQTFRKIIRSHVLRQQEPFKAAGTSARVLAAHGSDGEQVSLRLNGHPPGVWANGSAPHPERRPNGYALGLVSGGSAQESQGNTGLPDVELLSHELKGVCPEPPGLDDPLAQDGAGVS
(In TR-FRET formats the signal depends on donor and acceptor labels being close together.)

Test [2] concerns the target adenosine A3 receptor (A3R) (Homo sapiens (Human), UniProt P0DMS8). Kind of test: Inhibition of adenosine A3 receptor cAMP signaling pathway (HTRF cAMP, CHO-K1/A3R cells). Format: cell-based. As to conditions: Table 2; for IC50: CHO-K1/A3R cells, forskolin 10 μM, 2Cl-IB-MECA 5 nM, cAMP HTRF. The gist of the method: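 CHO-K1/A3R cells preincubated 30 min at room temperature with compound (100000–0.1 nM final) in HEPES/BSA buffer with rolipram and adenosine deaminase. Then stimulated 30 min with 10 μM forskolin plus 5 nM 2Cl-IB-MECA. Intracellular cAMP read by HTRF after 1 h.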

Structures are written as SMILES.

Chain of adenosine A3 receptor (A3R) (P0DMS8 whole entry): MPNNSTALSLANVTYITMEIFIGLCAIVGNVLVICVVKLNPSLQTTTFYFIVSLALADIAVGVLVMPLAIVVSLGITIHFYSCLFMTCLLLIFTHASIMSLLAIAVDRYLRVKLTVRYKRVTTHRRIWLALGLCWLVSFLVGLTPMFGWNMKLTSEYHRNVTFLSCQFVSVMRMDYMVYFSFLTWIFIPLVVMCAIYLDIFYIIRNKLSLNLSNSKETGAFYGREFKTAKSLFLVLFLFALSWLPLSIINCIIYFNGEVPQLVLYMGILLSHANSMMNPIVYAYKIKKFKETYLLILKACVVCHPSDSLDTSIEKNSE

With `Cc1cc(-c2c(-c3ccc(F)cc3F)nc(N)n3cnnc23)cc(C(F)(F)F)n1` [Example 18, 7-(2,4-Difluorophenyl)-8-(2-methyl-6-(trifluoromethyl)pyridin-4-yl)-[1,2,4]triazolo[4,3-c]pyrimidin-5-amine], the IC50 in test [1] (Table 1, ethyl carbazole 20 nM) was 3.96 nM; in test [1] (Table 2, ethyl carbazole 20 nM), 3.96 nM; in test [1] (Table 3, ethyl carbazole 20 nM), 0.75 nM; in test [2], more than 10000 nM. Further, the “IC50 ratio (A3R/A2aR)” value in test [2] is >2.5 × 10^3.

As to `Cc1cc(-c2c(-c3ccc(F)cc3F)nc(N)n3cnnc23)cc(C(F)F)n1` [Example 20, 8-(2-(Difluoromethyl)-6-methylpyridin-4-yl)-7-(2,4-difluorophenyl)-[1,2,4]triazolo[4,3-c]pyrimidin-5-amine], the IC50 in test [1] (Table 1, ethyl carbazole 20 nM) was 2.33 nM; in test [1] (Table 2, ethyl carbazole 20 nM) it was 2.33 nM; in test [1] (Table 3, ethyl carbazole 20 nM), 2.33 nM; in test [2], more than 10000 nM. For the same compound, the “IC50 ratio (A3R/A2aR)” value in test [2] is on record as >4.3 × 10^3.

A word on the IC50: it is the concentration that inhibits the measured activity by half. Higher therefore signals weaker potency in that assay.
